Measured values as given in paper PMC8355692, “Antimelanoma activities of chimeric thiazole–androstenone derivatives” (Royal Society Open Science, 2021).

How the values were obtained:
[1] = Solubility in the growth media; assay type: physicochemical; details: growth media of the HFF-1 test
MDA-MB-435 = experiment: NCI DTP 60 cell line five-concentration test, melanoma panel; assay type: cell-based; details: for CC50 / GI50: Homo sapiens; for CC50: MDA-MB-435, read-out: LC50 (50% lethal concentration); for GI50 / TGI (total growth inhibition): MDA-MB-435 melanoma cell line
Description: (§1) In our effort to develop new methodologies to synthesize bioactive compounds [11–14], we have synthesized a number of thiazole and thiazolo-androstenone derivatives. We submitted 50 of the synthesized thiazole–androstenone derivatives to the National Cancer Institute (NCI) Development Therapeutics Program (DTP) to test against 60 cancer cell lines (https://dtp.cancer.gov/). These compounds were tested for cytotoxicity at a single dose of 10 µM. […] Eight of these chimeric compounds (figure 2) were selected for further testing at five different concentrations to determine 50% growth inhibition (GI50), total growth inhibition (TGI) and 50% lethal concentration (LC50) values. […] Overall, amino-thiazole derivatives (table 1, 1–7) were more toxic to melanoma cell lines than phenyl thiazole derivatives (8). Fluoro and oxy (hydroxy and methoxy) derivatives were the potent growth inhibitors of the tested cancer cell lines. LOX IMVI cell line was the most susceptible among all the melanoma cell lines used against the tested compounds (table 1). […] Phenyl ethyl derivative (1) inhibited the growth of all the cell lines except SK-MEL-2. […] 2,4-Dimethyl substituted derivative (7) is a potent growth inhibitor of all the tested cell lines of the melanoma panel.

UACC-62 = experiment: as above; assay type: cell-based; details: for GI50 / LC50 (50% lethal concentration): Homo sapiens; for GI50: UACC-62, UACC-62 melanoma cell line; for LC50 (50% lethal concentration): UACC-62, read-out: LC50 (50% lethal concentration); for TGI (total growth inhibition): UACC-62 melanoma cell line
Description: as §1

UACC-257 = experiment: as above; assay type: cell-based; details: for CC50 / GI50: Homo sapiens; for CC50: UACC-257, read-out: LC50 (50% lethal concentration); for GI50 / TGI (total growth inhibition): UACC-257 melanoma cell line
Description: as §1

SK-MEL-5 = experiment: as above; assay type: cell-based; details: for CC50 / GI50: Homo sapiens; for CC50: SK-MEL-5, read-out: LC50 (50% lethal concentration); for GI50 / TGI (total growth inhibition): SK-MEL-5 melanoma cell line
Description: as §1

M14 = experiment: as above; assay type: cell-based; details: for GI50 / CC50: Homo sapiens; for GI50: M14, M14 melanoma cell line; for CC50: M14, read-out: LC50 (50% lethal concentration); for TGI (total growth inhibition): M14 melanoma cell line
Description: as §1

MALME-3M = experiment: as above; assay type: cell-based; details: for CC50 / GI50: Homo sapiens; for CC50: Malme-3M, read-out: LC50 (50% lethal concentration); for GI50 / TGI (total growth inhibition): MALME-3M melanoma cell line
Description: as §1

SK-MEL-2 = experiment: as above; assay type: cell-based; details: for LC50 (50% lethal concentration) / GI50: Homo sapiens; for LC50 (50% lethal concentration): SK-MEL-2, read-out: LC50 (50% lethal concentration); for GI50 / TGI (total growth inhibition): SK-MEL-2 melanoma cell line
Description: as §1

SK-MEL-28 = experiment: as above; assay type: cell-based; details: for GI50 / CC50: Homo sapiens; for GI50: SK-MEL-28, SK-MEL-28 melanoma cell line; for CC50: SK-MEL-28, read-out: LC50 (50% lethal concentration); for TGI (total growth inhibition): SK-MEL-28 melanoma cell line
Description: as §1

LOX IMVI = experiment: as above; assay type: cell-based; details: for LC50 (50% lethal concentration) / GI50: Homo sapiens; for LC50 (50% lethal concentration): LOX IMVI, read-out: LC50 (50% lethal concentration); for GI50 / TGI (total growth inhibition): LOX IMVI melanoma cell line
Description: as §1

melanoma panel = experiment: NCI DTP test, statements for the whole melanoma panel; assay type: cell-based
Description: as §1

[2] = system: caspase-activated DNase (CAD); experiment: CAD immunocytochemistry combined with TUNEL (caspase-mediated apoptosis); assay type: cell-based; details: melanoma cells, 5 or 10 µM, 24 h
Source text: (§2) The elevation was dose-dependent.
(§3) Figure 4. […] (c) Representative images. […] Mean ± s.e.m., n = 4 per group.
(§4) Figure 5. […] (a) Representative images of TUNEL colocalized or not colocalized with each of the three protein markers used in this study. […] Mean ± s.e.m., n = 4 per group.
(§5) Thus, to determine the mechanism of action of our compounds on melanoma cells in vitro, we applied the fluorescent TUNEL assay combined with quantitative ICC for three markers: HO1 for oxidative cell injury, CAD for caspase-mediated apoptosis and EndoG for caspase-independent apoptosis. […] However, none of the compounds or dacarbazine induced apoptotic endonucleases. This is not surprising because apoptotic endonucleases are commonly present in the cell in sufficient amounts to be able to destroy DNA upon cell death without induction (which most likely would not be possible in a dead cell).

SK-MEL-28 cell line = experiment: Annexin V flow cytometry apoptosis assay; assay type: cell-based; details: SK-MEL-28, 200 µM
Description: After determining the selective toxicity of potent molecules, we determined their mode of action against the melanoma cell line. Apoptosis or programmed cell death is a physiological process to remove unwanted or damaged mammalian cells. We detected apoptosis mode of cell death by our potent compounds using flow cytometry-based Annexin V assay. Compound 3 caused 23% apoptosis at 6 µM and 54% apoptosis at 12 µM (figure 3). 3-Fluorophenyl derivative (5) was a very potent apoptosis-inducing agent that caused 100% cell death at 12 µM concentration. Dacarbazine, the positive control, caused 22% apoptotic cell death at 200 µM concentration.
Figure 3. Apoptosis measurements using Annexin V flow cytometry assay of compounds 3 and 5 against SK-MEL-28 cell line at 6 and 12 µM concentrations. DMSO and dacarbazine (Daca) are negative and positive controls, respectively. Mean ± s.e.m., n = 3 per group.

heme oxygenase-1 (HO1) = experiment: HO1 immunocytochemistry combined with TUNEL (oxidative injury); assay type: cell-based; details: melanoma cells, 5 or 10 µM, 24 h
Source text: as §2, §3, §4, §5

HFF-1 cell line = experiment: Toxicity for normal human foreskin fibroblast cell line; assay type: cell-based; details: normal human foreskin fibroblast HFF-1
Source text: To assess the potential use of lead compounds as anti-melanoma agents, we tested their toxicity for the normal human foreskin fibroblast (HFF-1) cell line taking into consideration that MM is usually surrounded by the cells of this kind. The effects of some of the potent compounds on this cell line were very encouraging (table 4).

endonuclease G (EndoG) = experiment: EndoG immunocytochemistry combined with TUNEL (caspase-independent apoptosis); assay type: cell-based; details: melanoma cells, 24 h
Source text: as §2, §3, §4, §5

melanoma cells = experiment: TUNEL staining for DNA fragmentation and irreversible cell death; details: 5 or 10 µM, 24 h
Source text: Apoptosis is usually associated with profound DNA fragmentation that makes the cell death irreversible. DNA fragmentation could be due to the increasing of nuclear DNA access to apoptotic endonucleases and the induction of these enzymes. This DNA fragmentation is best measured by using the terminal deoxynucleotidyl transferase dUTP nick-end labelling (TUNEL) assay. […] Immunostaining for major marker of oxidative injury, heme oxygenase-1 (HO1) was done to determine whether the test compounds induce oxidative injury. […] Activation of endonucleases and their translocation to the nucleus is actually the last step when cell death becomes irreversible. It is often preceded by an oxidative cell injury that activates or aggravates the cell death mechanism. To measure whether our compounds induce oxidative injury, we chose to measure HO1 which is a well-established mechanistic marker of oxidative injury. Because HO1 is not a nuclear marker and it is not translocated to the nucleus and contact DNA during cell death, instead of colocalization by pixels, we counted the percentage of TUNEL-positive (dead) cells which are also HO1-positive (figure 5a). […] We next examined whether caspase-activated DNase (CAD), a known mechanistic marker of caspase-mediated apoptosis, is colocalized with TUNEL during cell death induced by dacarbazine or our test compounds (3, 4 and 5).
Figure 4. […]

| Compound | solubility in the growth media [1] | CC50 (MDA-MB-435) [µM] | GI50 (MDA-MB-435) [µM] | TGI (total growth inhibition) (MDA-MB-435) [µM] | GI50 (UACC-62) [µM] | LC50 (50% lethal concentration) (UACC-62) [µM] | TGI (total growth inhibition) (UACC-62) [µM] | CC50 (UACC-257) [µM] | GI50 (UACC-257) [µM] | TGI (total growth inhibition) (UACC-257) [µM] | CC50 (SK-MEL-5) [µM] | GI50 (SK-MEL-5) [µM] | TGI (total growth inhibition) (SK-MEL-5) [µM] | GI50 (M14) [µM] | CC50 (M14) [µM] | TGI (total growth inhibition) (M14) [µM] | GI50 (MALME-3M) [µM] | GI50 (SK-MEL-2) [µM] | GI50 (SK-MEL-28) [µM] | GI50 (LOX IMVI) [µM] | further results |
| --- | --- | --- | --- | --- | --- | --- | --- | --- | --- | --- | --- | --- | --- | --- | --- | --- | --- | --- | --- | --- | --- |
| C[C@]12CCc3nc(-c4cccc(F)c4)sc3C1=CC[C@@H]1[C@@H]2CC[C@]2(C)C(=O)CC[C@@H]12 [Compound 8] | low solubility | > 100 | 2.97 | >100 | 1.9 | 37.3 | 5.70 | > 100 | 6.12 | >100 | 65.1 | 4.05 | 16.9 | 6.62 | > 100 | >100 | 1.8 | 2.74 | 1.53 | 1.74 | CC50 (MALME-3M): 9.48 µM; TGI (total growth inhibition) (MALME-3M): 4.13 µM; LC50 (50% lethal concentration) (SK-MEL-2): > 100 µM; TGI (total growth inhibition) (SK-MEL-2): 10.7 µM; CC50 (SK-MEL-28): > 100 µM; TGI (total growth inhibition) (SK-MEL-28): 4.07 µM; LC50 (50% lethal concentration) (LOX IMVI): 6.47 µM; TGI (total growth inhibition) (LOX IMVI): 3.36 µM |
| C[C@]12CCc3nc(Nc4ccc(F)cc4F)sc3C1=CC[C@@H]1[C@@H]2CC[C@]2(C)C(=O)CC[C@@H]12 [Compound 6] |  |  | > 100 |  | > 100 |  |  |  | > 100 |  |  | 1.88 |  | > 100 |  |  | > 100 | > 100 | > 100 | 1.71 | TGI values against the cell lines of the melanoma panel (melanoma panel): did not show any useful TGI values |
| CN(C)/N=N/c1[nH]cnc1C(N)=O [dacarbazine, reference compound] |  |  |  |  |  |  |  |  |  |  |  |  |  |  |  |  |  |  |  |  | CAD mean intensity [2]: No significant induction; colocalization of CAD with TUNEL (caspase-mediated apoptosis) [2]: did not induce any association of CAD with TUNEL; apoptotic cell death (SK-MEL-28 cell line): 22%; HO1 staining in TUNEL-positive cells (oxidative injury) (heme oxygenase-1 (HO1)): without induction of HO1; toxicity against HFF1 cells (in words) (HFF-1 cell line): did not show any notable toxicity; IC50 (HFF-1 cell line; read-out: IC50 against HFF1 cell line): > 100 µM; EndoG overlap with TUNEL staining (caspase-independent apoptosis) (endonuclease G (EndoG); 5 µM): did not show any effect; EndoG overlap with TUNEL staining (caspase-independent apoptosis) (endonuclease G (EndoG); 10 µM): significant increase; EndoG mean intensity (endonuclease G (EndoG); 5 or 10 µM): No significant induction; cytotoxicity by TUNEL staining (TUNEL-positivity) (melanoma cells): negligent |
| C[C@]12CCc3nc(NCCc4ccccc4)sc3C1=CC[C@@H]1[C@@H]2CC[C@]2(C)C(=O)CC[C@@H]12 [Compound 1] | low solubility | > 100 | 3.01 | >100 | 2.67 | > 100 | 10.6 | > 100 | 4.92 | 79.8 | > 100 | 4.57 | 52.7 | 3.63 | > 100 | >100 | 2.18 | 17 | 3.37 | 1.7 | CC50 (MALME-3M): > 100 µM; TGI (total growth inhibition) (MALME-3M): 6.82 µM; LC50 (50% lethal concentration) (SK-MEL-2): > 100 µM; TGI (total growth inhibition) (SK-MEL-2): >100 µM; CC50 (SK-MEL-28): > 100 µM; TGI (total growth inhibition) (SK-MEL-28): 18.9 µM; LC50 (50% lethal concentration) (LOX IMVI): 5.91 µM; TGI (total growth inhibition) (LOX IMVI): 3.17 µM |
